Consider two compounds from ChEMBL document CHEMBL1146570, “Eudesmane derivatives and other sesquiterpenes from Laggera alata” (J Nat Prod, 2003).

One experiment has as its system A549. The experiment can be described thus: Cytotoxicity against human A549 cells at 20 ug/mL after 72 hrs. It counts as functional. Particulars: A549, 72 h.
Another experiment concerns SK-MEL. The experiment can be described thus: Cytotoxicity against human SK-MEL cells at 20 ug/mL after 72 hrs. Format: functional.
The test system of another experiment is KB. The experiment can be described thus: Cytotoxicity against human KB cells after 72 hrs. Format: functional, cell-based.

As usually defined, the inhibition is the drop in the measured response relative to a control, in per cent. A low value points to a weak effect. In the case of `C=C(C(=O)O)[C@@H]1CC[C@@]2(C)CCC[C@@](C)(O)[C@@H]2C1` [ILICIC ACID], the results for the inhibition at 20 µg/mL with A549 and with SK-MEL were 10.3% and 23.6%, respectively.
By IC50 is commonly meant the concentration at which inhibition is half-maximal. The low end stands for greater potency, the high end for weaker potency. `C=C(C(=O)O)[C@@H]1CC[C@@]2(C)CC[C@@H](O)[C@@](C)(O)[C@@H]2C1`: the IC50 with KB is > 100 µM.
